The test deals with T1, PDE6 partially purified from bovine retinal rod and activated by trypsin (Bos taurus, UniProt P11541+P23439).
T1 construct: from tissue; host or cells: bovine retinal rod
T1 sequence (P11541 2-856 limits assumed): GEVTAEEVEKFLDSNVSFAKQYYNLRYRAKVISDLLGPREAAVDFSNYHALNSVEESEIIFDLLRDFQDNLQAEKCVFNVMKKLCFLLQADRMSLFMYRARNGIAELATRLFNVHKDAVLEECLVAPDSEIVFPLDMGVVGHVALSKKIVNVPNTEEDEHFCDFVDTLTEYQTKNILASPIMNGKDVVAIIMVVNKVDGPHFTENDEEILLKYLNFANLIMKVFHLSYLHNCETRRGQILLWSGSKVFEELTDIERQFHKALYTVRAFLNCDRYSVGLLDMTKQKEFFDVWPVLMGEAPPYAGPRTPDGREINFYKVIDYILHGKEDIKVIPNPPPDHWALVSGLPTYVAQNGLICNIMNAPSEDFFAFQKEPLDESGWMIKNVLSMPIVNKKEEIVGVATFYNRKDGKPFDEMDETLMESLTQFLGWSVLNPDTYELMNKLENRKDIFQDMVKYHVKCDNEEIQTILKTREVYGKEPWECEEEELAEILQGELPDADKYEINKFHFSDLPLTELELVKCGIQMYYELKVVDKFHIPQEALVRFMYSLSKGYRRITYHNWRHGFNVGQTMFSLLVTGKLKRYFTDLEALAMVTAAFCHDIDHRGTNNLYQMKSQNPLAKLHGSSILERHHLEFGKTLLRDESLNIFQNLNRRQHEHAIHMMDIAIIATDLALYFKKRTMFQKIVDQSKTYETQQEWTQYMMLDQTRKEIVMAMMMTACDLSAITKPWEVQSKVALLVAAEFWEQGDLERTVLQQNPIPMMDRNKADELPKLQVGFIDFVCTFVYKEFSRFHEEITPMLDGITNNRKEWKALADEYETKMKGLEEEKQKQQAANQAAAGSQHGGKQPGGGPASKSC
T1 sequence (P23439 2-850 limits assumed): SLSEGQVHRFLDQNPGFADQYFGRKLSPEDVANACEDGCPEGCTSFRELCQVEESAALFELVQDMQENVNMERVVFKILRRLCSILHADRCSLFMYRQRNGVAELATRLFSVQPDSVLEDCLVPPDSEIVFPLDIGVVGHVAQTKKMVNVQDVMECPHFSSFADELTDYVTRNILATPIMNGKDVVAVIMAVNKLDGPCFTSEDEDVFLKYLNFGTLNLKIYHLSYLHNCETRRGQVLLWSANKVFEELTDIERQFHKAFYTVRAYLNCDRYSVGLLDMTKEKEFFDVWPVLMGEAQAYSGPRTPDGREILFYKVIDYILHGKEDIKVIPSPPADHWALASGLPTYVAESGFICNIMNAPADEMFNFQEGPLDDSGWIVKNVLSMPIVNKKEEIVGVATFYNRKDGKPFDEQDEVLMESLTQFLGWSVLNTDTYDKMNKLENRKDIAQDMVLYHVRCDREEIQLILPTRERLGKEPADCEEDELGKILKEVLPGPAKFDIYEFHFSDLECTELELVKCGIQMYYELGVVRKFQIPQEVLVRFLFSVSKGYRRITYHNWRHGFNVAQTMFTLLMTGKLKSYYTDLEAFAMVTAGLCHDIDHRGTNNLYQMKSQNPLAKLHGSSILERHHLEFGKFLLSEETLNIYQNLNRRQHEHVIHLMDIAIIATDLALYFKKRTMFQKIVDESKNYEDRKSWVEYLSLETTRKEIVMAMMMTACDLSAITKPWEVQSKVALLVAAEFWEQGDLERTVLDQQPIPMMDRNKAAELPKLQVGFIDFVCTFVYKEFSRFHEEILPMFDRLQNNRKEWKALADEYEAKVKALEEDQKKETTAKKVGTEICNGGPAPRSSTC
The test can be described thus: PDE6 biochemical enzyme assay ([3H]cGMP hydrolysis, scintillation counting). To be noted: Example 2; versus Viagra 0.3 μM.

Structures are written as SMILES.

Procedure: PDE6 partially purified from bovine retinal rod and activated by trypsin was used. […] Each reaction was terminated by raising the temperature to 100° C. for 2 minutes. The resulting GMP was converted to guanosine by addition of 10 mg/ml snake venom nucleotidase and further incubated at 30° C. for 10 minutes. Unhydrolyzed cGMP was bound to AGI-X2 resin, and [^3H]guanosine remaining in the aqueous phase was quantitated by scintillation counting.

Take `Cn1cc([S+](C)[O-])c(=O)c2ccc(F)cc21` (racemic) [Flosequinan, 7-fluoro-1-methyl-3-methylsulphinyl-4-quinolone]: the “times more compound on a molar basis than Viagra for such levels of PDE6 inhibition” value is “more than 300 times”.
